Assays:
Assay in all cases: relative viability (nuclei count vs DMSO), 5 days (fraction); higher = more cells survive
ABC-1 = test system: ABC-1
In short: (§1)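 Medians of duplicate plates are given as relative viability. That measure is the nuclei count in treated wells divided by the count in vehicle wells. Counts were taken on 4× images of lung cancer cell lines in 1536-well plates, 5 days after pin-tool dosing the day after seeding with one drug alone or a fixed anchor-drug dose plus five library-drug doses (not always all listed) in √10 steps.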

NCI-H1651 = test system: NCI-H1651
In short: as §1

NCI-H3122 = test system: NCI-H3122
In short: as §1

ChaGo-K-1 = test system: ChaGo-K-1
In short: as §1

HCC-78 = test system: HCC-78
In short: as §1

NCI-H460 = test system: NCI-H460
In short: as §1

NCI-H1395 = test system: NCI-H1395
In short: as §1

NCI-H2087 = test system: NCI-H2087
In short: as §1

PC-3 [JPC-3] = test system: PC-3 [JPC-3]
In short: as §1

NCI-H2405 = test system: NCI-H2405
In short: as §1

NCI-H1755 = test system: NCI-H1755
In short: as §1

HCC-366 = test system: HCC-366
In short: as §1

NCI-H1734 = test system: NCI-H1734
In short: as §1

LOU-NH91 = test system: LOU-NH91
In short: as §1

NCI-H1944 = test system: NCI-H1944
In short: as §1

NCI-H2170 = test system: NCI-H2170
In short: as §1

NCI-H1793 = test system: NCI-H1793
In short: as §1

LC-2-ad = test system: LC-2-ad
In short: as §1

LU99A = test system: LU99A
In short: as §1

CAL-12T = test system: CAL-12T
In short: as §1

RERF-LC-KJ = test system: RERF-LC-KJ
In short: as §1

NCI-H2228 = test system: NCI-H2228
In short: as §1

UMC-11 = test system: UMC-11
In short: as §1

NC(=O)Nc1cc(-c2cccc(F)c2)sc1C(=O)N[C@H]1CCCNC1 [AZD7762] + N=C(N)NC(=N)NCCc1ccccc1 [Phenformin] (partner 250 µM) was tested, and the relative viability (ABC-1; first compound 0.01 µM) was 0.273, the relative viability (ABC-1; first compound 0.03162 µM) was 0.249 and the relative viability (ABC-1; first compound 0.1 µM) was 0.268. The relative viability (ABC-1; first compound 0.3162 µM) was 0.203, the relative viability (ABC-1; first compound 1 µM) was 0.19 and the relative viability (NCI-H1651; first compound 0.01 µM) was 0.36. The relative viability (NCI-H1651; first compound 0.03162 µM) was 0.434, the relative viability (NCI-H1651; first compound 0.1 µM) was 0.319 and the relative viability (NCI-H1651; first compound 0.3162 µM) was 0.268. The relative viability (NCI-H1651; first compound 1 µM) was 0.17, the relative viability (NCI-H3122; first compound 0.01 µM) was 0.389 and the relative viability (NCI-H3122; first compound 0.03162 µM) was 0.412. The relative viability (NCI-H3122; first compound 0.1 µM) was 0.416, the relative viability (NCI-H3122; first compound 0.3162 µM) was 0.341 and the relative viability (NCI-H3122; first compound 1 µM) was 0.317. The relative viability (ChaGo-K-1; first compound 0.01 µM) was 0.517, the relative viability (ChaGo-K-1; first compound 0.03162 µM) was 0.513 and the relative viability (ChaGo-K-1; first compound 0.1 µM) was 0.479. It also gave a relative viability (ChaGo-K-1; first compound 0.3162 µM) of 0.468, a relative viability (ChaGo-K-1; first compound 1 µM) of 0.496 and a relative viability (HCC-78; first compound 0.01 µM) of 0.737. For the same compound, the relative viability (HCC-78; first compound 0.03162 µM) was 1.12, the relative viability (HCC-78; first compound 0.1 µM) was 0.766 and the relative viability (HCC-78; first compound 0.3162 µM) was 0.718. For the same compound, the relative viability (HCC-78; first compound 1 µM) was 0.604, the relative viability (NCI-H460; first compound 0.01 µM) was 0.542 and the relative viability (NCI-H460; first compound 0.03162 µM) was 0.468. The relative viability (NCI-H460; first compound 0.1 µM) was 0.467, the relative viability (NCI-H460; first compound 0.3162 µM) was 0.253 and the relative viability (NCI-H460; first compound 1 µM) was 0.0452. For the same compound, the relative viability (NCI-H1395; first compound 0.01 µM) was 0.471, the relative viability (NCI-H1395; first compound 0.03162 µM) was 0.47 and the relative viability (NCI-H1395; first compound 0.1 µM) was 0.491. The relative viability (NCI-H1395; first compound 0.3162 µM) was 0.434, the relative viability (NCI-H1395; first compound 1 µM) was 0.381 and the relative viability (NCI-H2087; first compound 0.01 µM) was 0.434. It also gave a relative viability (NCI-H2087; first compound 0.03162 µM) of 0.513, a relative viability (NCI-H2087; first compound 0.1 µM) of 0.566 and a relative viability (NCI-H2087; first compound 0.3162 µM) of 0.553. The relative viability (NCI-H2087; first compound 1 µM) was 0.554, the relative viability (PC-3 [JPC-3]; first compound 0.01 µM) was 0.485 and the relative viability (PC-3 [JPC-3]; first compound 0.03162 µM) was 0.503. It also gave a relative viability (PC-3 [JPC-3]; first compound 0.1 µM) of 0.449, a relative viability (PC-3 [JPC-3]; first compound 0.3162 µM) of 0.484 and a relative viability (PC-3 [JPC-3]; first compound 1 µM) of 0.405. The relative viability (NCI-H2405; first compound 0.01 µM) was 0.4, the relative viability (NCI-H2405; first compound 0.03162 µM) was 0.452 and the relative viability (NCI-H2405; first compound 0.1 µM) was 0.402. For the same compound, the relative viability (NCI-H2405; first compound 0.3162 µM) was 0.425, the relative viability (NCI-H2405; first compound 1 µM) was 0.242 and the relative viability (NCI-H1755; first compound 0.01 µM) was 0.636. It also gave a relative viability (NCI-H1755; first compound 0.03162 µM) of 0.704, a relative viability (NCI-H1755; first compound 0.1 µM) of 0.656 and a relative viability (NCI-H1755; first compound 0.3162 µM) of 0.596. For the same compound, the relative viability (NCI-H1755; first compound 1 µM) was 0.423, the relative viability (HCC-366; first compound 0.01 µM) was 0.601 and the relative viability (HCC-366; first compound 0.03162 µM) was 0.615. It also gave a relative viability (HCC-366; first compound 0.1 µM) of 0.627, a relative viability (HCC-366; first compound 0.3162 µM) of 0.485 and a relative viability (HCC-366; first compound 1 µM) of 0.312. For the same compound, the relative viability (NCI-H1734; first compound 0.01 µM) was 0.44, the relative viability (NCI-H1734; first compound 0.03162 µM) was 0.44 and the relative viability (NCI-H1734; first compound 0.1 µM) was 0.398. It also gave a relative viability (NCI-H1734; first compound 0.3162 µM) of 0.33, a relative viability (NCI-H1734; first compound 1 µM) of 0.211 and a relative viability (LOU-NH91; first compound 0.01 µM) of 0.783. The relative viability (LOU-NH91; first compound 0.03162 µM) was 0.76, the relative viability (LOU-NH91; first compound 0.1 µM) was 0.717 and the relative viability (LOU-NH91; first compound 0.3162 µM) was 0.772. The relative viability (LOU-NH91; first compound 1 µM) was 0.525, the relative viability (NCI-H1944; first compound 0.01 µM) was 0.196 and the relative viability (NCI-H1944; first compound 0.03162 µM) was 0.23. It also gave a relative viability (NCI-H1944; first compound 0.1 µM) of 0.231, a relative viability (NCI-H1944; first compound 0.3162 µM) of 0.273 and a relative viability (NCI-H1944; first compound 1 µM) of 0.21. The relative viability (NCI-H2170; first compound 0.01 µM) was 0.411, the relative viability (NCI-H2170; first compound 0.03162 µM) was 0.41 and the relative viability (NCI-H2170; first compound 0.1 µM) was 0.471. It also gave a relative viability (NCI-H2170; first compound 0.3162 µM) of 0.384, a relative viability (NCI-H2170; first compound 1 µM) of 0.423 and a relative viability (NCI-H1793; first compound 0.01 µM) of 0.428. For the same compound, the relative viability (NCI-H1793; first compound 0.03162 µM) was 0.416, the relative viability (NCI-H1793; first compound 0.1 µM) was 0.278 and the relative viability (NCI-H1793; first compound 0.3162 µM) was 0.351. For the same compound, the relative viability (NCI-H1793; first compound 1 µM) was 0.279, the relative viability (LC-2-ad; first compound 0.01 µM) was 0.645 and the relative viability (LC-2-ad; first compound 0.03162 µM) was 0.595. The relative viability (LC-2-ad; first compound 0.1 µM) was 0.555, the relative viability (LC-2-ad; first compound 0.3162 µM) was 0.592 and the relative viability (LC-2-ad; first compound 1 µM) was 0.342. It also gave a relative viability (LU99A; first compound 0.01 µM) of 0.777, a relative viability (LU99A; first compound 0.03162 µM) of 0.934 and a relative viability (LU99A; first compound 0.1 µM) of 0.868. It also gave a relative viability (LU99A; first compound 0.3162 µM) of 0.795, a relative viability (LU99A; first compound 1 µM) of 0.512 and a relative viability (CAL-12T; first compound 0.01 µM) of 0.605. It also gave a relative viability (CAL-12T; first compound 0.03162 µM) of 0.559, a relative viability (CAL-12T; first compound 0.1 µM) of 0.571 and a relative viability (CAL-12T; first compound 0.3162 µM) of 0.321. The relative viability (CAL-12T; first compound 1 µM) was 0.114, the relative viability (RERF-LC-KJ; first compound 0.01 µM) was 0.481 and the relative viability (RERF-LC-KJ; first compound 0.03162 µM) was 0.424. The relative viability (RERF-LC-KJ; first compound 0.1 µM) was 0.399, the relative viability (RERF-LC-KJ; first compound 0.3162 µM) was 0.4 and the relative viability (RERF-LC-KJ; first compound 1 µM) was 0.382. It also gave a relative viability (NCI-H2228; first compound 0.01 µM) of 0.305, a relative viability (NCI-H2228; first compound 0.03162 µM) of 0.348 and a relative viability (NCI-H2228; first compound 0.1 µM) of 0.223. For the same compound, the relative viability (NCI-H2228; first compound 0.3162 µM) was 0.152, the relative viability (NCI-H2228; first compound 1 µM) was 0.13 and the relative viability (UMC-11; first compound 0.01 µM) was 0.372. The relative viability (UMC-11; first compound 0.03162 µM) was 0.322, the relative viability (UMC-11; first compound 0.1 µM) was 0.238 and the relative viability (UMC-11; first compound 0.3162 µM) was 0.25. The relative viability (UMC-11; first compound 1 µM) was 0.234.

Source: the supplement of paper PMC10307832
